Experimental data: US9539298B2, “Lissencephaly therapeutic agent” (OSAKA CITY UNIVERSITY, priority 2010, dated 2017)

Columns and labels:
[1] = system: fibroblasts derived from human lissencephaly patient (Lis1 +/−); test: Fluorescence immunostaining of fibroblasts derived from a human lissencephaly patient; assay type: cell-based; conditions: 200 μM, two hours
Experimental: The establishment of fibroblasts was performed in the following manner. Under a germ-free condition, a portion of epidermis (5 mm square) was obtained from a lissencephaly patient. The obtained epidermis was transported for 4 hours at room temperature while stored in a culture solution (E-MEM (Wako Pure Chemical Industries, Ltd., 051-07615), 10% fetal bovine blood serum (Equitech-Bio Inc, SFBM30-1798, 1×L-glutamine (Gibco, 25030), 1× Pen-Strep (Gibco, 15140)) (*the culture solution with this formulation is used hereinafter). After transportation, the tissue fragment was cut into a 1 mm square, fixed to a culture flask (Becton Dickinson 353009), and cultured for three weeks in 6 ml of a culture solution. After the 3-week culture, the amplification of fibroblasts from the tissue fragment was confirmed; then, the fragment was washed with a phosphate buffer physiological saline solution (phosphate buffered saline, PBS (−), 137 mM NaCl, 2.7 mM KCl, 10 mM Na2HPO4, 1.8 mM KH2PO4, pH 7.4), and 0.5 ml of trypsin-EDTA (Gibco, 25200) was added, followed by reaction for 5 minutes at 37° C. to separate the cells. Then, 10 ml of a culture solution was added, and the fragment was transferred to a 10 cm petri dish (Greiner, 664-160) for culture.
To observe the cells with a microscope, the cells were cultured on cover glasses. The cover glasses (24×24 No. 1, Matsunami Glass Ind., Ltd.) were immersed in 0.1 M hydrochloric acid for 20 minutes. After washing with water, the cover glasses were placed in 70% ethanol, and kept in a clean bench. In the clean bench, each cover glass was placed on the bottom of each well of a 6-well plate (Falcon 353046). After the ethanol was dried, 0.5×10^5 fibroblasts per well were added and cultured for 16 hours, thereby adhering the cells onto the cover glasses.
A SNJ-1945-containing culture solution was prepared. […]

[2] = system: LIS1 heterozygous adult mice; test: LIS1 protein in adult mouse brains after SNJ-1945 intraperitoneal administration; assay type: in vivo; conditions: three weeks after birth
Experimental: SNJ-1945 was dissolved in dimethyl sulfoxide (DMSO) at a concentration of 100 mg/ml, and intraperitoneally injected to LIS1 heterozygous mice so that the administration amount was 100 μg/per gram of body weight at the time of three weeks after birth. To determine the effect of SNJ-1945 administration, LIS1 proteins of normal adult mice and LIS1 heterozygous adult mice (administered with SNJ-1945) were measured. In the SNJ-1945 administration group, the brain tissues were taken at 0 hour (immediately after the administration), 1 hour, 2 hours, 4 hours, 8 hours, 12 hours, 16 hours, 24 hours, 48 hours, and 72 hours after the administration to measure LIS1 protein, so as to determine the effect of SNJ-1945 over time. Six mice for each group were used for the measurement of LIS1 protein (n=6).
For the measurement of LIS1 protein amount, the weight of the brains was immediately measured as soon as the brains were removed.

## COCCOCCOC(=O)N[C@@H](CC(C)C)C(=O)N[C@@H](Cc1ccccc1)C(=O)C(=O)NC1CC1 [compound 17, ((1S)-1-((((1S)-1-Benzyl-2,3-dioxo-3-(cyclopropylamino)propyl)amino)carbonyl)-3-methylbutyl)carbamic acid 5-methoxy-3-oxapentyl ester]
[1]; FIGS. 15 and 16
  intracellular distribution of LIS1: causes LIS1 to be accumulated around the nucleus or centrosome again
[1]; FIGS. 17 and 18
  intracellular distribution of cytoplasmatic dynein: cytoplasmatic dynein became completely diffused again from the region around the nucleus to the cell marginal zone
[1]; FIGS. 19 and 20
  intracellular distribution of β-COP-coated vesicles: β-COP-coated vesicles became distributed evenly from the region around the nucleus to the cell marginal zone again
[2]; 100 μg per gram of body weight IP, FIG. 8
  LIS1 protein amount in adult brain: recovered to substantially the normal level
[2]; 100 μg/g IP
  duration of the effect on LIS1 protein after a single dose: continued for at least three days
